# Like-named read-outs stand apart in the source and are kept apart here.
# Experiments:
# [1] = Pharmacokinetics in plasma and bronchoalveolar lavage fluid of female CD-1 mice; type: in vivo; settings: mouse, female CD-1 mice
# Method: An appropriate amount of the test drug was accurately weighed and mixed with the appropriate volume of vehicle (5% DMSO+0.5% Tween 80 in normal saline) to obtain a clear solution for the test in Table 9. The formulation solution for injection was prepared to sterile filtration through a 0.22 μm filter prior to administration. The mice were dosed with the drug within 30 min after the formulated solution for injection was prepared. A 1.5 mL of the formulation solution for injection was transferred into a polypropylene microcentrifuge tube for dose verification by LC/UV or LC-MS/MS.
# All blood samples were transferred to pre-frozen EDTA-K2 tubes and placed on wet ice until centrifugation. […]
# Plasma: approximately 100 μL of blood sample was transferred into pre-cooled commercial EDTA-K2 tubes and placed on wet ice until centrifugation. After the blood samples were centrifuged at approximately 4° C. and 3, 200 g for 10 min, plasma was collected and transferred to pre-labeled 96-well plates or polypropylene tubes, flash frozen on dry ice, and stored at ≤−60° C. until the analysis by LC-MS/MS.
# Serum: approximately 100 μL of blood sample was transferred into a tube without anticoagulant and placed on wet ice for approximately 30 min and centrifuged at 4° C. and 3,000 g for 10 min, and the serum was collected and transferred into pre-labeled PP tubes placed on wet ice. After the completion of all the collections, serum samples were stored at −60° C. until being sent to the animal experimental team to determine urea concentration.
# Bronchoalveolar lavage fluid (BALF): pre-cooled tracheo-alveolar lavage fluid was injected into the trachea or predefined bronchi. After a full expansion of the lung tissue, the lavage fluid was slowly drawn out with a syringe 30 s later. The lung was lavaged three times. During the last lavage, the lung tissue was gently squeezed to restore the fluid. To prevent contamination of other lung tissues, the corresponding bronchi were ligated. Both lungs of the mice were perfused with 0.8 mL.
# […] Approximately 200 μL of the BALF samples were transferred into a polypropylene tube, rapidly frozen on dry ice, maintained at ≤−60° C., and sent to the animal experimental team to determine urea concentration. The remaining BALF samples (approximately 600 μL) were rapidly frozen on dry ice and maintained at ≤−60° C. until being submitted for drug concentration analysis by LC-MS/MS.
# [2] = test system: Acinetobacter baumannii strains; experiment: Minimum inhibitory concentration (CLSI M07), Example 2, 20 strains; type: cell-based; settings: for MIC: read-out: MIC
# [3] = test system: clinical strains of Acinetobacter baumannii; experiment: Minimum inhibitory concentration (CLSI M07), Example 1, clinical strains; type: cell-based; settings: combination MIC = sum of the concentrations of the two compounds
# Method: The minimum inhibitory concentration (MIC) was determined in accordance with the requirements of the Clinical and Laboratory Standards Institute (CLSI) M07 (for aerobic bacteria).
# 3.1 The compounds were diluted with water up to 100 times of the highest concentration tested.
# The dilution steps are as follows: first dilute the compounds or antibiotics to 100 times of the highest final concentration tested, and then:
# A 50 μL of sterile water and 50 μL of avibactam sodium mother liquid were added into the A row of the second 96-well plate, and 50 μL of water was added into each of the remaining wells. A 50 μL of liquid was pipetted from the A row and added into the B row; after being pipetted up and down to even, 50 μL of the solution was pipetted and added to the C row, and diluted in a 2-fold gradient in turn for a total of 6 times and then, 50 μL was removed from each well of the G row to obtain the compound solution diluted to a 2-fold gradient and then 4 μL was transferred to a 96-well test plate.
# Aerobic bacteria: the strains were inoculated on MHA one day in advance and incubated overnight at 37° C. On the day of the assay, 5-6 single colonies were picked and suspended evenly in saline, and the bacterial concentration was adjusted to the turbidity of 0.5 McFarland standard (concentration is about 1×10^8 CFU/mL). The bacterial suspension was diluted 200 times with the corresponding liquid culture medium (Table 1), i.e., at a bacterial concentration of ~5×10^5 CFU/ml, then 192 μL was transferred to a 96-well round bottom plate to obtain the test plate. Then, the 96-well round bottom plate obtained above was placed into an incubator at 37° C. and 85% humidity to incubate for 20 h.
structure (smiles),measurement,setting,value
"CC1(C)[C@H](C(=O)[O][Na+])N2C(=O)C[C@H]2S1(=O)=O [Sulbactam sodium, sulbactam sodium]",Kp,"[1]; BALF/plasma, intravenous, 150 mg/kg, BALF column, read-out: AUC Ratio",0.0248
same,AUC(0-t),"[1]; bronchoalveolar lavage fluid (BALF), intravenous dripping 150 mg/kg, BALF, read-out: AUC0-last, BALF",1310 ng·h/mL
same,Cmax,"[1]; bronchoalveolar lavage fluid (BALF), intravenous dripping 150 mg/kg, BALF, read-out: Cmax, mean BALF concentration",617 ng/mL
same,MRT last,"[1]; bronchoalveolar lavage fluid (BALF), intravenous dripping 150 mg/kg, BALF, read-out: MRT0-last, BALF",103 min
same,half-life,"[1]; bronchoalveolar lavage fluid (BALF), intravenous dripping 150 mg/kg, BALF, read-out: T1/2, BALF (converted)",43.5 min
same,Tmax,"[1]; bronchoalveolar lavage fluid (BALF), intravenous dripping 150 mg/kg, BALF, read-out: Tmax, BALF",180 min
same,clearance,"[1]; intravenous dripping 150 mg/kg, plasma",47.2 mL/min/kg
same,AUC(0-t),"[1]; intravenous dripping 150 mg/kg, plasma, read-out: AUC0-last, plasma",52900 ng·h/mL
same,Cmax,"[1]; intravenous dripping 150 mg/kg, plasma, read-out: Cmax, mean plasma concentration",19600 ng/mL
same,MRT last,"[1]; intravenous dripping 150 mg/kg, plasma, read-out: MRT0-last, plasma",26.4 min
same,half-life,"[1]; intravenous dripping 150 mg/kg, plasma, read-out: T1/2, plasma (converted)",52.4 min
same,Tmax,"[1]; intravenous dripping 150 mg/kg, plasma, read-out: Tmax, plasma",60 min
same,Vd,"[1]; intravenous dripping 150 mg/kg, plasma, read-out: Vdss",1.26 L/kg
same,MIC,"[2]; Acinetobacter baumannii, ATCC17978, strain ATCC 17978",8 µg/mL
same,MIC,"[2]; Acinetobacter baumannii, ATCC19606, strain ATCC 19606",2 µg/mL
same,MIC,"[2]; Acinetobacter baumannii, ATCCBAA1605, strain ATCC-BAA-1605",32 µg/mL
same,MIC,"[2]; Acinetobacter baumannii, ATCCBAA1789, strain ATCC-BAA-1789",4 µg/mL
same,MIC,"[2]; Acinetobacter baumannii, ATCCBAA1790, strain ATCC-BAA-1790",16 µg/mL
same,MIC,"[2]; Acinetobacter baumannii, ATCCBAA1791, strain ATCC-BAA-1791",8 µg/mL
same,MIC,"[2]; Acinetobacter baumannii, ATCCBAA1792, strain ATCC-BAA-1792",32 µg/mL
same,MIC,"[2]; Acinetobacter baumannii, ATCCBAA1793, strain ATCC-BAA-1793",32 µg/mL
same,MIC,"[2]; Acinetobacter baumannii, ATCCBAA1794, strain ATCC-BAA-1794",8 µg/mL
same,MIC,"[2]; Acinetobacter baumannii, ATCCBAA1795, strain ATCC-BAA-1795",64 µg/mL
same,MIC,"[2]; Acinetobacter baumannii, ATCCBAA1796, strain ATCC-BAA-1796",16 µg/mL
same,MIC,"[2]; Acinetobacter baumannii, ATCCBAA1797, strain ATCC-BAA-1797",8 µg/mL
same,MIC,"[2]; Acinetobacter baumannii, ATCCBAA1798, strain ATCC-BAA-1798",16 µg/mL
same,MIC,"[2]; Acinetobacter baumannii, ATCCBAA1799, strain ATCC-BAA-1799",64 µg/mL
same,MIC,"[2]; Acinetobacter baumannii, ATCCBAA1800, strain ATCC-BAA-1800",32 µg/mL
same,MIC,"[2]; Acinetobacter baumannii, strain ARLG-1791",32 µg/mL
same,MIC,"[2]; Acinetobacter baumannii, strain ARLG-1809",32 µg/mL
same,MIC,"[2]; Acinetobacter baumannii, strain ARLG-1852",16 µg/mL
same,MIC,"[2]; Acinetobacter baumannii, strain ARLG-1853",32 µg/mL
same,MIC,"[2]; Acinetobacter baumannii, strain ARLG-1881",128 µg/mL
same,MIC50,"[2]; Acinetobacter baumannii, Example 2, 20 strains, read-out: MIC50",32 µg/mL
same,MIC90,"[2]; Acinetobacter baumannii, Example 2, 20 strains, read-out: MIC90",64 µg/mL
same,MIC range,"[2]; Example 2, 20 strains",2 to 128 µg/mL
same,MIC of this strain BAA-1795 (component in the combination),[2]; strain BAA-1795,8 µg/mL
same,MIC of the strain BAA-1795 (component in the combination),"[2]; strain BAA-1795, sulbactam/avibactam 4:1, concentration of the named component",8 µg/mL
same,MIC50,"[3]; Acinetobacter baumannii, read-out: MIC50",32 µg/mL
same,MIC90,"[3]; Acinetobacter baumannii, read-out: MIC90",32 µg/mL
same,MIC range,[3],8 to 32 µg/mL
